Assay results: US5599793A, “Antithromobotic agents” (Eli Lilly and Company, priority 1995, dated 1997)

Tests used:
factor Xa = target: T1, factor Xa (Homo sapiens, UniProt P00742); experiment: Serine protease selectivity, chromogenic substrate (Kass), factor Xa; assay type: biochemical; conditions: substrate N-Benzoyl-Ile-Glu-Gly-Arg-p-nitroanilide
T1 construct: Human factors X, Xa, IXa, XIa, and XIIa are purchased; purchased Enzyme Research Laboratories, South Bend, Ind

Trypsin = target: T2, Trypsin (Bos taurus, UniProt P00760); experiment: Serine protease selectivity, chromogenic substrate (Kass), trypsin; assay type: biochemical, bovine; conditions: substrate N-Benzoyl-Phe-Val-Arg-p-nitroanilide
T2 construct: Bovine trypsin is purchased; purchased Worthington Biochemicals, Freehold, N.J
T2 sequence (P00760 24-246): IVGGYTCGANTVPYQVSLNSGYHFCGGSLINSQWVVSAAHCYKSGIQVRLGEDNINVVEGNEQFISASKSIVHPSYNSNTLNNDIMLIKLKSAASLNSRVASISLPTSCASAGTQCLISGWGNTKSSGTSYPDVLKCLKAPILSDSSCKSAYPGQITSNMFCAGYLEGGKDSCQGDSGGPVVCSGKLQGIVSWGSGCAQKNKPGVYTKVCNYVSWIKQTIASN

Plasmin = target: T3, Plasmin (Homo sapiens, UniProt P00747); experiment: Serine protease selectivity, chromogenic substrate (Kass), plasmin; assay type: biochemical; conditions: substrate H-D-Val-Leu-Lys-p-nitroanilide
T3 construct: Human plasmin is purchased; purchased Boehringer Mannheim, Indianapolis, Ind

t-PA = target: T4, t-PA (Homo sapiens, UniProt P00750); experiment: Serine protease selectivity, chromogenic substrate (Kass), t-PA; assay type: biochemical; conditions: substrate H-D-Ile-Pro-Arg-p-nitroanilide
T4 construct: purchased American Diagnostica, Greenwich, Conn
T4 sequence (P00750 36-562): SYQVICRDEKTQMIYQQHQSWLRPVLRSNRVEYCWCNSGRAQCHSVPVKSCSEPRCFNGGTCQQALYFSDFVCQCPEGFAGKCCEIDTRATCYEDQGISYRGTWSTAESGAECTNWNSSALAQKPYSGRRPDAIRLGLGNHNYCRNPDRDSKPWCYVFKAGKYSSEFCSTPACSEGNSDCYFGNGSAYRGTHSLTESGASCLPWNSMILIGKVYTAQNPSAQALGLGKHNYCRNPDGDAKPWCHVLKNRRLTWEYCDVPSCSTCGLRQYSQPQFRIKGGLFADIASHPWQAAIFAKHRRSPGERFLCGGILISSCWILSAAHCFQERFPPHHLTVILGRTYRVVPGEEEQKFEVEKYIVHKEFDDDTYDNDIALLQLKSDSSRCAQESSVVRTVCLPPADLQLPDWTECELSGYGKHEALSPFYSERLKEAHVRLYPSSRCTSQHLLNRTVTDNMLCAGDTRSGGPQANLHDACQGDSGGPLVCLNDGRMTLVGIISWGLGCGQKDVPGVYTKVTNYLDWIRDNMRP

T1 sequence (P00742 235-488 limits assumed): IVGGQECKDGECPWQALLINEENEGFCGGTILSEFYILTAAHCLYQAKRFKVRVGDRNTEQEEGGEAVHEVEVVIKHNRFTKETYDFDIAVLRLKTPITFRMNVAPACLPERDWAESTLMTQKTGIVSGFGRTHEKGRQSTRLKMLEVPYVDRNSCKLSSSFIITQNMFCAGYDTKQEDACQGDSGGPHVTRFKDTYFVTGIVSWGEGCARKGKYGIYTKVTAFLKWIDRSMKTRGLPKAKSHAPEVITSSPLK
T1 sequence (P00742 41-179 partner limits assumed): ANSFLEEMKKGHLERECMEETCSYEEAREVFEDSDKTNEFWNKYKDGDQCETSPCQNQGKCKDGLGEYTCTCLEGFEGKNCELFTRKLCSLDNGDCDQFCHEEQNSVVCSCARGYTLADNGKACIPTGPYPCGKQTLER
T3 sequence (P00747 581-810 limits assumed): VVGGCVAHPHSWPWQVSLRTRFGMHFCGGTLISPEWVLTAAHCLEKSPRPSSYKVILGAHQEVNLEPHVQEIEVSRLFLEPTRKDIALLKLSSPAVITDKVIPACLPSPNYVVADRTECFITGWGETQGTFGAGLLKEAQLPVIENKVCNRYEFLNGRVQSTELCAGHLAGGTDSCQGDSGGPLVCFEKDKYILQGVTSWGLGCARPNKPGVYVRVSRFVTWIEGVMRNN
T3 sequence (P00747 97-580 partner limits assumed): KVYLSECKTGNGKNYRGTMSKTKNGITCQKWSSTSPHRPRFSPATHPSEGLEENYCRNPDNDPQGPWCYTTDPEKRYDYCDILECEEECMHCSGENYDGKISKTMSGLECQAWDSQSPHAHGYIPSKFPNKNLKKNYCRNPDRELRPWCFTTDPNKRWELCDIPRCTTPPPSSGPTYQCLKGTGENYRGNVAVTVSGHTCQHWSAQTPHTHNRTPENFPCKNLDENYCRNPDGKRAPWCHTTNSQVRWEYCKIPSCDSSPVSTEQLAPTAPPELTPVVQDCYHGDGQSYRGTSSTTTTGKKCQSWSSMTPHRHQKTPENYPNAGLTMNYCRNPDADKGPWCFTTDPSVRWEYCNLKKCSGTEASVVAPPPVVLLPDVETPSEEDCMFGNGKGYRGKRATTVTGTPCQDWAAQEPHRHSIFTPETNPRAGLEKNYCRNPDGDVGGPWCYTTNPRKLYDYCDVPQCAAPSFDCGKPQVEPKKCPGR

SMILES	Enzyme Kass, Xa (factor Xa) [L/mol × 10^6]	Enzyme Kass, Trypsin (Trypsin) [L/mol × 10^6]	Enzyme Kass, Plasmin (Plasmin) [L/mol × 10^6]	Enzyme Kass, t-PA (t-PA) [L/mol × 10^6]	Enzyme Kass, Xa (factor Xa; HCl) [L/mol × 10^6]	Enzyme Kass, Trypsin (Trypsin; HCl) [L/mol × 10^6]	Enzyme Kass, Plasmin (Plasmin; HCl) [L/mol × 10^6]	Enzyme Kass, t-PA (t-PA; HCl) [L/mol × 10^6]
Cl.Cl.N=C(N)NCCC[C@@H](C=O)NC(=O)[C@@H]1CC2CCCCC2N1C(=O)[C@H]1CCCCN1 (relative stereo) [Example 7, N-[(1-D-homoprolyl-cis-octahydro-1H-indol-2(S)-yl)carbonyl]-L-argininal dihydrochloride]	1.6	150	1.8	0.053				
Cl.Cl.N=C(N)NCCC[C@@H](C=O)NC(=O)[C@@H]1C[C@H](Cc2ccccc2)CN1C(=O)[C@H]1CCCCN1 (relative stereo) [Example 5, D-hPro-Pro(4-cis-benzyl)-ArgH.2 HCl]	5.8	150	2.1	0.057				
CC[C@H]1C[C@@H](C(=O)N[C@H](C=O)CCCNC(=N)N)N(C(=O)[C@H]2CCCCN2)C1.Cl.Cl (relative stereo) [Example 2, D-homoprolyl-L-cis-4-ethyl-prolyl-L-argininal dihydrochloride]	1.7	520	1.0	0.097				
CCC[C@H]1C[C@@H](C(=O)N[C@H](C=O)CCCNC(=N)N)N(C(=O)[C@H]2CCCCN2)C1.Cl.Cl (relative stereo) [Example 3, D-hPro-Pro(4-cis-n-propyl)-ArgH.2 HCl]	1.7	260	0.66	0.14				
C[C@H]1C[C@@H](C(=O)N[C@H](C=O)CCCNC(=N)N)N(C(=O)[C@H]2CCCCN2)C1.Cl.Cl (relative stereo) [Example 1, D-homoprolyl-L-cis-4-methyl-prolyl-L-argininal dihydrochloride]	1.4	390	0.86	0.077				

The remaining lines, values ahead:

Enzyme Kass, Xa (factor Xa) [L/mol × 10^6]	Enzyme Kass, Trypsin (Trypsin) [L/mol × 10^6]	Enzyme Kass, Plasmin (Plasmin) [L/mol × 10^6]	Enzyme Kass, t-PA (t-PA) [L/mol × 10^6]	Enzyme Kass, Xa (factor Xa; HCl) [L/mol × 10^6]	Enzyme Kass, Trypsin (Trypsin; HCl) [L/mol × 10^6]	Enzyme Kass, Plasmin (Plasmin; HCl) [L/mol × 10^6]	Enzyme Kass, t-PA (t-PA; HCl) [L/mol × 10^6]	SMILES
				0.75	119	3.67	0.013	Cl.Cl.N=C(N)NCCCC(C=O)NC(=O)C1CC2CCCCC2N1C(=O)C1NCCC2CCCCC21 [Example 20, D-1-cis-Piq-cis-Ohi-ArgH.2 HCl]
1.6	130	1.7	0.055					Cl.Cl.Cl.N=C(N)NCCC[C@@H](C=O)NC(=O)[C@@H]1C[C@H](Oc2cccnc2)CN1C(=O)[C@H]1CCCCN1 (relative stereo) [Example 9, D-hPro-Pro(4-cis-(3-pyridyloxy))-ArgH.3 HCl]
3.0	270	2.9	0.069					Cl.Cl.N=C(N)NCCC[C@H](C=O)NC(=O)[C@@H]1C[C@H](Oc2ccccc2)CN1C(=O)[C@H]1CCCCN1 (relative stereo) [Example 8, D-homoprolyl-L-cis-4-phenoxy-L-prolyl-D-argininal dihydrochloride]
0.66	74	1.4	0.086					Cl.Cl.Cl.N=C(N)NCCC[C@@H](C=O)NC(=O)[C@@H]1C[C@H](Oc2ccc(N)cc2)CN1C(=O)[C@H]1CCCCN1 (relative stereo) [Example 11, D-hPro-Pro(4-cis-(4-NH2-phenoxy))-ArgH.3 HCl]
2.6	140	5.1	0.045					Cl.Cl.N=C(N)NCCC[C@@H](C=O)NC(=O)[C@@H]1C[C@H](Oc2ccccc2)CN1C(=O)C1NCCC2CCCCC21 (relative stereo) [Example 15, D-1-Piq-Pro(4-cis-phenoxy)-ArgH.2 HCl]
11.8	312	27.6	0.085					CCS(=O)(=O)N[C@@H](C(=O)N1[C@H](C(=O)N[C@H](C=O)CCCNC(=N)N)C[C@@H]2CCCC[C@@H]21)c1ccccc1.Cl (relative stereo) [Example 22, EtSO2 -D-Phg-cis-Ohi-ArgH.HCl]
